In the supplement of paper PMC11451515:

Tested on: SEM cells
Assay: cell viability relative to DMSO control; higher = less cytotoxic
Details: 48 h
How it was run: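 Three leukemia lines were tested: NOMO1 and SEM at 500 cells/well and P12-Ichikawa at 1000 cells/well. Each was adapted for at least four passages in each medium and seeded in 5 μl in 1536-well plates, and library compounds in DMSO were pin-dosed from 47 μM to 0.79 nM in 11 threefold steps. After 48 h at 37°C, CellTiter-Glo One luminescence was read. Viability is a percentage relative to DMSO wells on each plate, with cell-free wells as background.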

[1] = HPLM + 10% dialyzed FBS, 0.000781 µM
[2] = HPLM + 10% dialyzed FBS, 0.00234 µM
[3] = HPLM + 10% dialyzed FBS, 0.00702 µM
[4] = HPLM + 10% dialyzed FBS, 0.0211 µM
[5] = HPLM + 10% dialyzed FBS, 0.0632 µM
[6] = HPLM + 10% dialyzed FBS, 0.19 µM
[7] = HPLM + 10% dialyzed FBS, 0.569 µM
[8] = HPLM + 10% dialyzed FBS, 1.71 µM
[9] = HPLM + 10% dialyzed FBS, 5.12 µM
[10] = HPLM + 10% dialyzed FBS, 15.4 µM
[11] = HPLM + 10% dialyzed FBS, 46.1 µM
[12] = RPMI 5 mM glucose + 10% dialyzed FBS, 0.000781 µM
[13] = RPMI 5 mM glucose + 10% dialyzed FBS, 0.00234 µM
[14] = RPMI 5 mM glucose + 10% dialyzed FBS, 0.00702 µM
[15] = RPMI 5 mM glucose + 10% dialyzed FBS, 0.0211 µM
[16] = RPMI 5 mM glucose + 10% dialyzed FBS, 0.0632 µM
[17] = RPMI 5 mM glucose + 10% dialyzed FBS, 0.19 µM
[18] = RPMI 5 mM glucose + 10% dialyzed FBS, 0.569 µM
[19] = RPMI 5 mM glucose + 10% dialyzed FBS, 1.71 µM
[20] = RPMI 5 mM glucose + 10% dialyzed FBS, 5.12 µM
[21] = RPMI 5 mM glucose + 10% dialyzed FBS, 15.4 µM
[22] = RPMI 5 mM glucose + 10% dialyzed FBS, 46.1 µM
[23] = RPMI 5 mM glucose + 10% FBS, 0.000781 µM
[24] = RPMI 5 mM glucose + 10% FBS, 0.00234 µM
[25] = RPMI 5 mM glucose + 10% FBS, 0.00702 µM
[26] = RPMI 5 mM glucose + 10% FBS, 0.0211 µM
[27] = RPMI 5 mM glucose + 10% FBS, 0.0632 µM
[28] = RPMI 5 mM glucose + 10% FBS, 0.19 µM
[29] = RPMI 5 mM glucose + 10% FBS, 0.569 µM
[30] = RPMI 5 mM glucose + 10% FBS, 1.71 µM
[31] = RPMI 5 mM glucose + 10% FBS, 5.12 µM
[32] = RPMI 5 mM glucose + 10% FBS, 15.4 µM
[33] = RPMI 5 mM glucose + 10% FBS, 46.1 µM

Nc1nc(NCCNc2ncc(-n3ccnc3)c(-c3ccc(Cl)cc3Cl)n2)ccc1[N+](=O)[O-]
cell viability [1]: 120% | cell viability [2]: 134% | cell viability [3]: 112% | cell viability [4]: 135% | cell viability [5]: 123% | cell viability [6]: 132% | cell viability [7]: 132% | cell viability [8]: 99.6% | cell viability [9]: 104% | cell viability [10]: 121% | cell viability [11]: 107% | cell viability [12]: 135% | cell viability [13]: 124% | cell viability [14]: 119% | cell viability [15]: 129% | cell viability [16]: 138% | cell viability [17]: 123% | cell viability [18]: 128% | cell viability [19]: 116% | cell viability [20]: 93.4% | cell viability [21]: 116% | cell viability [22]: 103%

CCc1cc(-c2n[nH]c(C)c2-c2ccc3c(c2)OCCO3)c(O)cc1O
cell viability [1]: 98% | cell viability [2]: 123% | cell viability [3]: 137% | cell viability [4]: 117% | cell viability [5]: 128% | cell viability [6]: 124% | cell viability [7]: 126% | cell viability [8]: 111% | cell viability [9]: 111% | cell viability [10]: 32.9% | cell viability [11]: 36.2% | cell viability [23]: 106% | cell viability [24]: 123% | cell viability [25]: 115% | cell viability [26]: 127% | cell viability [27]: 134% | cell viability [28]: 140% | cell viability [29]: 120% | cell viability [30]: 115% | cell viability [31]: 102% | cell viability [32]: 31.4% | cell viability [33]: 25.2%

N#CC[C@H](C1CCCC1)n1cc(-c2ncnc3[nH]ccc23)cn1
cell viability [1]: 100% | cell viability [2]: 104% | cell viability [3]: 103% | cell viability [4]: 103% | cell viability [5]: 94.1% | cell viability [6]: 85.9% | cell viability [7]: 103% | cell viability [8]: 90.1% | cell viability [9]: 63.7% | cell viability [10]: 39.6% | cell viability [11]: 24.5% | cell viability [23]: 103% | cell viability [24]: 111% | cell viability [25]: 86.6% | cell viability [26]: 108% | cell viability [27]: 109% | cell viability [28]: 96.1% | cell viability [29]: 92.7% | cell viability [30]: 107% | cell viability [31]: 50% | cell viability [32]: 23% | cell viability [33]: 19.8% | cell viability [12]: 98.9% | cell viability [13]: 97.7% | cell viability [14]: 98.1% | cell viability [15]: 97.9% | cell viability [16]: 113% | cell viability [17]: 99.6% | cell viability [18]: 96.8% | cell viability [19]: 87.3% | cell viability [20]: 63.3% | cell viability [21]: 31.6% | cell viability [22]: 26.3%

CCOC(=O)[C@H]1O[C@@H]1C(=O)N[C@@H](CC(C)C)C(=O)NCCC(C)C
cell viability [1]: 116% | cell viability [2]: 119% | cell viability [3]: 109% | cell viability [4]: 125% | cell viability [5]: 120% | cell viability [6]: 132% | cell viability [7]: 69.4% | cell viability [8]: 114% | cell viability [9]: 118% | cell viability [10]: 118% | cell viability [11]: 109% | cell viability [23]: 111% | cell viability [24]: 99.4% | cell viability [25]: 102% | cell viability [26]: 96.2% | cell viability [27]: 110% | cell viability [28]: 88.4% | cell viability [29]: 91.1% | cell viability [30]: 124% | cell viability [31]: 107% | cell viability [32]: 104% | cell viability [33]: 94.6%

C1COC(NC(C2CC2)C2CC2)=N1
cell viability [1]: 79.5% | cell viability [2]: 78% | cell viability [3]: 66.1% | cell viability [4]: 95.3% | cell viability [5]: 72.9% | cell viability [6]: 87.9% | cell viability [7]: 81.2% | cell viability [8]: 21.6% | cell viability [9]: 88.7% | cell viability [10]: 99% | cell viability [11]: 60.1% | cell viability [23]: 72.5% | cell viability [24]: 92% | cell viability [25]: 72.4% | cell viability [26]: 75.8% | cell viability [27]: 79.5% | cell viability [28]: 81.4% | cell viability [29]: 87.2% | cell viability [30]: 15.3% | cell viability [31]: 75.6% | cell viability [32]: 75.6% | cell viability [33]: 45.9% | cell viability [12]: 74.6% | cell viability [13]: 89.1% | cell viability [14]: 66.9% | cell viability [15]: 75.7% | cell viability [16]: 73.6% | cell viability [17]: 81.8% | cell viability [18]: 106% | cell viability [19]: 16.6% | cell viability [20]: 87.5% | cell viability [21]: 105% | cell viability [22]: 36.4%

CC(C)CC(N(C)C)C1(c2ccc(Cl)cc2)CCC1 (stereo not drawn)
cell viability [1]: 114% | cell viability [2]: 119% | cell viability [3]: 117% | cell viability [4]: 133% | cell viability [5]: 124% | cell viability [6]: 117% | cell viability [7]: 126% | cell viability [8]: 110% | cell viability [9]: 90.4% | cell viability [10]: 54.3% | cell viability [11]: 59.1% | cell viability [23]: 111% | cell viability [24]: 127% | cell viability [25]: 118% | cell viability [26]: 116% | cell viability [27]: 121% | cell viability [28]: 128% | cell viability [29]: 121% | cell viability [30]: 105% | cell viability [31]: 75% | cell viability [32]: 40.2% | cell viability [33]: 46.7%

NCCc1ccc(O)c(O)c1
cell viability [1]: 119% | cell viability [2]: 137% | cell viability [3]: 121% | cell viability [4]: 133% | cell viability [5]: 130% | cell viability [6]: 132% | cell viability [7]: 131% | cell viability [8]: 110% | cell viability [9]: 109% | cell viability [10]: 86% | cell viability [11]: 8.51% | cell viability [23]: 113% | cell viability [24]: 136% | cell viability [25]: 123% | cell viability [26]: 123% | cell viability [27]: 127% | cell viability [28]: 139% | cell viability [29]: 122% | cell viability [30]: 96.5% | cell viability [31]: 128% | cell viability [32]: 107% | cell viability [33]: 18.6% | cell viability [12]: 99% | cell viability [13]: 124% | cell viability [14]: 107% | cell viability [15]: 111% | cell viability [16]: 123% | cell viability [17]: 111% | cell viability [18]: 109% | cell viability [19]: 105% | cell viability [20]: 107% | cell viability [21]: 95.2% | cell viability [22]: 11.5%

CN(C(Cc1ccc(O[S+](=O)([O-])c2cccc3cnccc23)cc1)C(=O)N1CCN(c2ccccc2)CC1)[S+](=O)([O-])c1cccc2cnccc12 (stereo not drawn)
cell viability [1]: 102% | cell viability [2]: 110% | cell viability [3]: 112% | cell viability [4]: 105% | cell viability [5]: 110% | cell viability [6]: 108% | cell viability [7]: 114% | cell viability [8]: 95.3% | cell viability [9]: 94.6% | cell viability [10]: 74.2% | cell viability [11]: 39.1% | cell viability [23]: 120% | cell viability [24]: 110% | cell viability [25]: 108% | cell viability [26]: 109% | cell viability [27]: 108% | cell viability [28]: 99.7% | cell viability [29]: 108% | cell viability [30]: 96.9% | cell viability [31]: 95% | cell viability [32]: 46.2% | cell viability [33]: 22.9% | cell viability [12]: 110% | cell viability [13]: 120% | cell viability [14]: 100% | cell viability [15]: 119% | cell viability [16]: 114% | cell viability [17]: 120% | cell viability [18]: 114% | cell viability [19]: 110% | cell viability [20]: 90.3% | cell viability [21]: 67.1% | cell viability [22]: 34.5%

C[N+]1(C)[C@@H]2CC(OC(=O)C(O)(c3cccs3)c3cccs3)C[C@H]1[C@@H]1O[C@@H]12 (stereo partly drawn)
cell viability [1]: 94.8% | cell viability [2]: 95.5% | cell viability [3]: 107% | cell viability [4]: 102% | cell viability [5]: 113% | cell viability [6]: 103% | cell viability [7]: 103% | cell viability [8]: 114% | cell viability [9]: 106% | cell viability [10]: 113% | cell viability [11]: 108% | cell viability [23]: 85.4% | cell viability [24]: 104% | cell viability [25]: 92.6% | cell viability [26]: 83% | cell viability [27]: 110% | cell viability [28]: 96.3% | cell viability [29]: 99.3% | cell viability [30]: 103% | cell viability [31]: 99.3% | cell viability [32]: 114% | cell viability [33]: 92.1% | cell viability [12]: 90.9% | cell viability [13]: 98% | cell viability [14]: 105% | cell viability [15]: 113% | cell viability [16]: 119% | cell viability [17]: 119% | cell viability [18]: 111% | cell viability [19]: 139% | cell viability [20]: 108% | cell viability [21]: 121% | cell viability [22]: 101%
